In patent US11638745B2, “Method to improve neurologic outcomes in temperature managed patients” (University of Pittsburgh—Of the Commonwealth System of …, priority 2015, dated 2023):
“Also recorded” adds a separate entry of the source.

B1: FGF21: Fibroblast growth factor 21 protein, purchased from R&D Systems (protein, UniProt Q9NSA1 29-209, looked up)
Fibroblast growth factor 21: HPIPDSSPLLQFGGQVRQRYLYTDDAQQTEAHLEIREDGTVGGAADQSPESLLQLKALKPGVIQILGVKTSRFLCQRPDGALYGSLHFDPEACSFRELLLEDGYNVYQSEAHGLPLHLPGNKSPHRDPAPRGPARFLPLPGLPPALPEPPGILAPQPPDVGSSDPLSMVGPSQGRSPSYAS

Assays:
RBM3 [1] = test: RBM3 protein levels by Western blot in drug-treated primary cortical neurons at 37° C. or 36° C.; assay type: cell-based, rat; conditions: mature DIV26 neurons, 48 h at 36° C., drug combinations; melatonin 100 μM, T090 1 μM
RBM3 [2] = test: as above; assay type: cell-based, rat; conditions: for RBM3 protein expression: DIV7 neurons cultured at 37° C., 24 h treatment with increasing dose; for RBM3 levels: 24 h treatment
Experimental: Primary Cortical Neuron Culture. Embryos (mixed gender) were isolated from timed pregnant (E16-17) Sprague Dawley rats. Neuron cultures were performed as previously described (Jackson TC, et al. (2013) Pharmacological inhibition of pleckstrin homology domain leucine-rich repeat protein phosphatase is neuroprotective: differential effects on astrocytes. J Pharmacol Exp Ther 347:516-528). Cortices were dissected in ice-cold Hanks balanced salt solution (HBSS; Life Technologies, Grand Island, N.Y., USA) containing sodium bicarbonate (SIGMA), penicillin-streptomycin (Life Technologies), and 4-(2-hydroxyethyl)-1-piperazineethanesulfonic acid (HEPES; Life Technologies). Brain tissues were dissected under a Leica M651 light microscope (Buffalo Grove, Ill., USA), and placed in a 1.5 mL tube containing ˜1 mL prepared HBSS. Tissues were minced and transferred to a 15 mL conical tube. Cells were spun 5 min/200 g/4° C. Supernatant was aspirated, cells resuspended in 2 mL trypsin solution, and incubated 8 min at 37° C. with gentle mixing. Trypsin activity was quenched in 10 mL Neurobasal/B27 (Life Technologies) containing 10% fetal bovine serum (FBS; Thermo Fisher Scientific, Pittsburgh, Pa., USA). Cells were transferred into a new 15 mL conical tube and spun 5 min/200 g/4° C. Supernatant was replaced with 1.5 mL trituration media. Cells were dissociated by 10 passages through a fire-polished glass Pasteur pipette. The cell pellet was resuspended in plating media warmed to 37° C. (Neurobasal Media/B27 supplement prepared+25 μM L-Glutamic Acid+Pen-Strep). Cell number was quantified by automatic counting on a Cellometer (Nexcelom Bioscience, Lawrence, Mass., USA). Cells were seeded onto 6-well culture plates coated with poly-D-lysine (density ˜1.2-1.5×10^6/well). Cultures were maintained by half media replacement every ˜3-4 days in vitro (DIV). The mitotic inhibitor cytosine β-D-arabinofuranoside hydrochloride (ARA-C; 4 μM final concentration) was added in study 1 experiment (e.g. DIV10-11 cultures) to ensure purity of neuronal biochemistry for initial assessment of temperature treatments. Mitotic inhibitors at low levels are non-toxic but still potentially represent a mild stressor (though necessary to guarantee neuron purity) (Ahlemeyer B, et al., (2003) Cytosine arabinofuranoside-induced activation of astrocytes increases the susceptibility of neurons to glutamate due to the release of soluble factors. Neurochem Int 42:567-581). Results of temperature treatments were confirmed in younger DIV6 neurons in the absence of ARA-C (neuron enriched cultures; >90% neurons). Astrocytes were allowed to proliferate in aged cultures, which were not treated with ARA-C. It was observed that astrocytes are necessary for long-term survival of neuron cultures (i.e. DIV26 mature neuron cultures).
Hypothermia Protocols: Neurons were maintained in a 37° C. (normothermic) incubator. Before start of hypothermia, two identical incubators of the same make/model with humidity of ˜95% (all in the same room) were programmed to 36° C. and 33° C. Incubators were allowed a minimum of 48 h equilibration time prior to starting hypothermic experiments. In some experiments, as an additional control, a thermometer was placed inside hypothermic incubators as a secondary gauge of temperature. Temperature as assessed by that approach was independently confirmed to never be under target temperature and fluctuate by no more than ˜0.5° C. On DIV of interest, culture plates were assigned to one of the three experimental temperatures for 24 or 48 h.
Drug Treatments: Drugs were prepared in DMSO or PBS (i.e. for FGF21). All drugs were diluted in conditioned culture media and applied for 24 h. Controls received equal amounts of DMSO/PBS without drugs. Primary neurons were harvested for biochemistry at key time points. RBM3 and CIRBP levels were measured by Western blot. Investigators were not blinded to temperature treatment groups.
Western Blot. […]

[3] = test system: piglet model of perinatal ischemic brain injury; conditions: hypothermia 33.5° C.; cited from earlier work
RBM3 mRNA = conditions: mouse liver, microarray; cited from earlier work
[4] = used to chemically lower core body temperature; cited from earlier work
[5] = mammals; cited from earlier work
AKT/ERK = AKT/ERK phosphorylation by Western blot in FGF21-treated neurons; assay type: cell-based, rat; conditions: neurons at 37° C., 24 h later
Experimental: Primary Cortical Neuron Culture. Embryos (mixed gender) were isolated from timed pregnant (E16-17) Sprague Dawley rats. Neuron cultures were performed as previously described (Jackson TC, et al. (2013) Pharmacological inhibition of pleckstrin homology domain leucine-rich repeat protein phosphatase is neuroprotective: differential effects on astrocytes. J Pharmacol Exp Ther 347:516-528). Cortices were dissected in ice-cold Hanks balanced salt solution (HBSS; Life Technologies, Grand Island, N.Y., USA) containing sodium bicarbonate (SIGMA), penicillin-streptomycin (Life Technologies), and 4-(2-hydroxyethyl)-1-piperazineethanesulfonic acid (HEPES; Life Technologies). Brain tissues were dissected under a Leica M651 light microscope (Buffalo Grove, Ill., USA), and placed in a 1.5 mL tube containing ˜1 mL prepared HBSS. Tissues were minced and transferred to a 15 mL conical tube. Cells were spun 5 min/200 g/4° C. Supernatant was aspirated, cells resuspended in 2 mL trypsin solution, and incubated 8 min at 37° C. with gentle mixing. […] Cell number was quantified by automatic counting on a Cellometer (Nexcelom Bioscience, Lawrence, Mass., USA). […]
Drug Treatments: Drugs were prepared in DMSO or PBS (i.e. for FGF21). […] RBM3 and CIRBP levels were measured by Western blot. […]
Western Blot. […] Protein concentration was determined using the BCA assay (Thermo Scientific-PIERCE). […]

PND17 rats given CCI = test: PND17 CCI with TH/TTM ± FGF21 (MWM behavior, cell death histology); assay type: in vivo, rat; conditions: 1 mg/kg FGF21 IV at start and end of TH/TTM
Experimental: TTM and TH. PND17 and 12 wk adult Sprague Dawley rats receive external cooling. Endogenous RBM3/β-Klotho levels is compared in male and female rats. The TTM group is cooled to 36° C. within ˜5 min then maintained to target temperature for 7 h: 25 min. The TH group is cooled to 33° C. over ˜1 h then to target temperature for 3 h: 15 min then rewarmed at a rate of 1° C./hr. Time spent<37° C. is equal in all groups (8 h: 30 mins). FIGS. 11A, 11B, 12A, and 12B illustrate exemplary protocols for these groups.
PND17 CCI. Rats are given CCI in Aim 271, 72. Isoflurane anesthetized ˜35 g PND17 rats are craniotomized at the left parietal cortex and injured by pneumatic impactor (velocity, 4 m/s; depth, 2.5 mm). Randomization is by (A) temperature (37° C., 36° C., 33° C.), and (B)±CCI±1 mg/kg FGF21 or PBS vehicle. Two bolus IV injections of drug will be given—at the start and end of TH/TTM. Technicians are blind to treatments.
MWM Behavior. Rats are given MWM testing 73, 74. […] Motor skill is assessed measuring swim speed proving cognitive performance is not confounded by motor deficits.
Cell Death. […] Surviving CA1/CA3 cells are counted in H & E stained brain sections 7 d post-injury by unbiased stereology. 21 d contusion volume is measured after MWM in separate rats […]

[6] = young DIV6 neurons at 37° C., same concentrations
[7] = young DIV6 neurons cooled to 36° C., 5 nM FGF21, 100 μM melatonin, 1 μM T090, 5 μM SRT1720, 1 μM AZD1080

Row | Molecule | RBM3 induction (RBM3 [1]) | RBM3 protein expression (RBM3 [2]) | RBM3 levels (RBM3 [2]; [6]) | RBM3 levels (RBM3 [2]; [7]) | body temperature [5] | further results
1 | COc1ccc2[nH]cc(CCNC(C)=O)c2c1 [melatonin] | failed to do so | minor effects on RBM3 protein expression | failed to do so | augmented RBM3 upregulation; also recorded: augmented RBM3 levels; also recorded: increased hypothermia-induced RBM3 | – | RBM3 levels (RBM3 [2]; young DIV6 neurons cooled to 36° C., 5 nM FGF21, 100 μM melatonin, 1 μM T090, 5 μM SRT1720, 1 μM AZD1080, listed as Melatonin): augment RBM3 induction; hypothermia induced neuroprotection [3]: augments hypothermia (33.5° C.) induced neuroprotection
2 | O=S(=O)(c1ccccc1)N(CC(F)(F)F)c1ccc(C(O)(C(F)(F)F)C(F)(F)F)cc1 [T090] | failed to do so | minor effects on RBM3 protein expression | mildly increased RBM3 levels | mildly increased RBM3 levels | – | RBM3 levels (RBM3 [2]; young DIV6 neurons at 37° C., same concentrations, listed as T0901317): mildly induced RBM3; RBM3 levels (RBM3 [2]; young DIV6 neurons cooled to 36° C., 5 nM FGF21, 100 μM melatonin, 1 μM T090, 5 μM SRT1720, 1 μM AZD1080, listed as T0901317): augmented RBM3 upregulation; also recorded: mildly induced RBM3; RBM3 mRNA (RBM3 mRNA): upregulate RBM3 mRNA
3 | O=C(Nc1ccccc1-c1cn2c(CN3CCNCC3)csc2n1)c1cnc2ccccc2n1 [SRT1720] | – | – | Neither SRT1720 (Sirtuin antagonist) nor AZD1080 (GSK-3β antagonist) increased RBM3 levels; also recorded: did not affect RBM3 levels | Neither SRT1720 (Sirtuin antagonist) nor AZD1080 (GSK-3β antagonist) increased RBM3 levels; also recorded: did not affect RBM3 levels | – | –
4 | Nc1ncnc2c1ncn2[C@@H]1O[C@H](COP(=O)(O)O)[C@@H](O)[C@H]1O [5-AMP, adenosine monophosphate] | – | – | – | – | chemically induce hypothermia | side effects [4]: profound hypotension and hyperglycemia
5 | N#Cc1ccc2[nH]c(O)c(-c3ccc(CN4CCOCC4)cn3)c2c1 [AZD1080] | – | – | Neither SRT1720 (Sirtuin antagonist) nor AZD1080 (GSK-3β antagonist) increased RBM3 levels; also recorded: did not affect RBM3 levels | Neither SRT1720 (Sirtuin antagonist) nor AZD1080 (GSK-3β antagonist) increased RBM3 levels; also recorded: did not affect RBM3 levels | – | –
6 | B1 | failed to do so | minor effects on RBM3 protein expression | failed to do so | augment RBM3 induction; also recorded: induces RBM3; also recorded: augments RBM3; also recorded: augmented RBM3 upregulation; also recorded: augmented RBM3 levels; also recorded: increased hypothermia-induced RBM3 | slight body temperature reduction | RBM3 levels above baseline (RBM3 [2]; DIV7 neurons cultured at 36° C., 24 h, dose effect): increased RBM3 above baseline in a bi-phasic manner; AKT/ERK phosphorylation (AKT/ERK): decreased; TH/TTM induced neuroprotection after a CCI (PND17 rats given CCI): augments TH/TTM induced neuroprotection
